Several values for one entry are separate records, joined by “and”; a condition that tells them apart may be missing. Equal values may be shown once.
Legend:
Type in all cases: biochemical, Trichoderma atroviride
Chi18 mRNA construct = test: Size Exclusion Base Hydrolysis Degradation Assay, Chi18; settings: for T0 R1 peak area at 250 nm: Chi18 0.1 mg/mL, 25 mM amino acid, 50 mM CAPS, T=0, replicate 1; for T2 R1 peak area at 250 nm / T2 Avg, peak area as percentage of T=0 / T10 Avg, peak area as percentage of T=0 / T10 R1 peak area at 250 nm / T24 Avg, peak area as percentage of T=0 / T24 R1 peak area at 250 nm / T0 Avg, peak area as percentage of T=0: Chi18, 25 mM amino acid; for T2 R1 peak area at 250 nm / T2 Avg, peak area as percentage of T=0 / T10 Avg, peak area as percentage of T=0 / T10 R1 peak area at 250 nm / T24 Avg, peak area as percentage of T=0 / T24 R1 peak area at 250 nm: 50 mM CAPS pH 11, room temperature; for T2 R1 peak area at 250 nm / T2 Avg, peak area as percentage of T=0: 2 hrs; for T2 R1 peak area at 250 nm / T10 R1 peak area at 250 nm / T24 R1 peak area at 250 nm: replicate 1; for T10 Avg, peak area as percentage of T=0 / T10 R1 peak area at 250 nm: 10 hrs; for T24 Avg, peak area as percentage of T=0 / T24 R1 peak area at 250 nm: 24 hrs; for T0 Avg, peak area as percentage of T=0: T=0 (reference)
Method: (§1) Basic assay procedure: RNA samples were diluted to 1.0 mg/mL in DNAase/RNAase free water. Amino acids were dissolved in water to a stock solution of 100 mM and a solution of 500 mM CAPS pH 11 was used. The two mRNA constructs tested were FgenL and Chi18. Each individual sample volume was 50 μL. To determine the amount of 1 M NaOH needed to adjust the final pH to 11.0 after the addition of all sample components, the sample volume was increased 100 fold (5 mL), the volume of 1 M NaOH recorded and this value was translated back down to the 50 μL sample volume.
(§2) The mRNA and amino acid were allowed to incubate for one hour prior to the addition of CAPS pH 11. All steps of the assay were conducted at room temperature.
(§3) Degradation reaction: After the CAPS addition, the samples were injected onto the Waters H-Class UPLC system to record the first timepoint, T=O. This resulting chromatogram was processed by integrating the area of absorbance at 250 nm for the mRNA construct. Immediately following this timepoint, the pH was adjusted to 11. Subsequent time points (2 hrs, 10 hrs, and 24 hrs) recorded the Absorbance Units (peak area) at 250 nm as a percentage of the peak area determined at T=O. Integration of the chromatogram for subsequent timepoints was conducted by analyzing the area of absorbance at 250 nm contained within the same time window in which the peak eluted in T=0 for the 100% intact mRNA.

FgenL model RNA [1] = settings: percent protection, pH 11.0, 44° C., 16 hours, n = 2
Method: (§4) The ddPCR assays measure RNA integrity by converting intact RNA to cDNA by reverse transcription, then performing digital PCR in thousands of nanoliter-sized droplets for each sample. PCR is performed within each droplet, which allows for more sensitive detection of subtle changes in RNA concentration compared to traditional PCR or qPCR. Additionally, primers/probes specific to the 5′ end of the RNA/cDNA transcript(s) are used to assess fragment integrity—e.g. degraded RNA will have fewer 5′ positive droplets. The BioRad QX200 Droplet Digital PCR System was used for the ddPCR workflow.
(§5) Basic assay procedure: RNA samples (Chi18 or FgenL fragments) were diluted to 25 fg/μL or 10 fg/μL, respectively, in 50 mM […] buffer pH 11.0. Amino acid stocks were made up in 50 mM CAPS buffer, pH 11.0 and subsequently re-adjusted to pH 11.0, post solubilization. Amino acid stocks were tested in a dose-response format to determine EC50. An amino acid dilution plate containing a ˜300 mM (or appropriate) top-concentration of amino acid in 50 mM CAPS buffer was serially (half-log) diluted for 10 times. 0.6 μL of this compound dilution plate was spotted into a 96-well PCR plate (Thermo). Sample RNAs were added (6 μL) and incubated with test amino acid as described below.
(§6) Degradation reaction: Treated RNAs were incubated for 16 hours at 30° C. for Chi18 samples or 44° C. for FgenL samples. Upon completion of the degradation reaction, cDNA was made from the intact RNA by Reverse Transcription and ddPCR run for each sample (96 well plates). Positive 5′ droplet values were divided by the total accepted droplet values for each sample and a ratio value generated for each sample.
(§7) EC50 was determined by using a four parameter logistic equation: Y=A+((B−A)/(1+(C/X)D)); where Y is percent protection, X is compound concentration, A and B are minimum and maximum asymptotes, respectively, C is EC50, and D is Hill slope.

FgenL model RNA [2] = test: TapeStation Assay, FgenL model RNA; set-up: Conc. FgenL#1 / Conc. FgenL#2: unit not given here; settings: for % Control N = 1 / % Control N = 2 / % Control Average: FgenL RNA, 20 mM amino acids, 50 mM CAPS pH 11, 50° C. 15 min; for % Control N = 1 / % Control N = 2: vs Time 0; for % Control Average: vs Time 0, Avg N=2; for Conc. FgenL#1 / Conc. FgenL#2: intact FgenL RNA after 15 min at 50° C.; for Conc. FgenL#1: 20 mM amino acids in 50 mM CAPS pH 11, run #1; for Conc. FgenL#2: 20 mM amino acids in 50 mM CAPS pH 11, run #2
Method: These assays were performed with amino acids and compared to a no-degradation baseline control to gauge degree of protection imparted by the amino acid. Multiple functional assay approaches were used where differing endpoints were measured including a droplet digital PCR (ddPCR) assay where intact RNA sequence was quantitated, a size exclusion base hydrolysis degradation assay that used a size exclusion column to determine the degree of degradation occurring to an mRNA construct, and finally, a TapeStation assay that utilizes capillary electrophoresis and optical detection to measure intact RNA. […] Affinity selection by mass spectrometry (ASMS), native electrospray ionization mass spectrometry (nESI-MS) and nuclear magnetic resonance (NMR) may be used as several complementary approaches to ascertain compound binding to RNA. The latter techniques utilize MS to measure mass of bound compound alone (ASMS), or mass of RNA and bound compound (nESI-MS). The nESI-MS and NMR studies may be conducted to provide direct analytical quantification of resulting complex via measurement of mass (nESI-MS) or chemical shifts (NMR). The ASMS experiment is conducted to determine saturation binding of the compound to RNA where resulting apparent binding constants (KD,App) may be generated. Further descriptions of the functional and binding assays are provided in the section below.
In principle, samples are loaded to the instrument where electrophoresis separates component RNA's on the basis of mass, and subsequently analyzes these optically as they travel through the capillary.
RNA samples were diluted to the appropriate concentration to fall within the linear range of detection for the RNA ScreenTape Assay. Model Chi18 or FgenL RNAs were diluted to 50 ng/μL in 50 mM CAPS buffer pH 11. Amino acid stocks were made up in 50 mM CAPS pH 11 and re-adjusted to >pH 11 after solubilization. […] The samples were aliquoted to PCR tubes for each time point (Time 0 or 15 minutes). Degradation reaction: Samples were incubated at 50° C. for 0 to 15 minutes in a thermocycler, removed at the appropriate time point and placed on ice. Time 0 samples remained on ice.

FgenL mRNA construct = test: Size Exclusion Base Hydrolysis Degradation Assay, FgenL; settings: 25 mM amino acid; for T0 R1 peak area at 250 nm: FgenL 0.1 mg/mL, 50 mM CAPS, T=0, replicate 1; for T2 R1 peak area at 250 nm / T2 Avg, peak area as percentage of T=0 / T10 R1 peak area at 250 nm / T10 Avg, peak area as percentage of T=0 / T24 Avg, peak area as percentage of T=0 / T24 R1 peak area at 250 nm / T0 Avg, peak area as percentage of T=0: FgenL; for T2 R1 peak area at 250 nm / T2 Avg, peak area as percentage of T=0 / T10 R1 peak area at 250 nm / T10 Avg, peak area as percentage of T=0 / T24 Avg, peak area as percentage of T=0 / T24 R1 peak area at 250 nm: 50 mM CAPS pH 11, room temperature; for T2 R1 peak area at 250 nm / T2 Avg, peak area as percentage of T=0: 2 hrs; for T2 R1 peak area at 250 nm / T10 R1 peak area at 250 nm / T24 R1 peak area at 250 nm: replicate 1; for T10 R1 peak area at 250 nm / T10 Avg, peak area as percentage of T=0: 10 hrs; for T24 Avg, peak area as percentage of T=0 / T24 R1 peak area at 250 nm: 24 hrs; for T0 Avg, peak area as percentage of T=0: T=0 (reference)
Method: as §1, §2, §3

Chi18 model RNA = test: Droplet Digital Polymerase Chain Reaction (ddPCR) Assay, Chi18; settings: percent protection, pH 11.0, 30° C., 16 hours, n = 2
Method: as §4, §5, §6, §7

Row | SMILES | T10 Avg, peak area as percentage of T=0 (Chi18 mRNA construct) [%] | T10 R1 peak area at 250 nm (Chi18 mRNA construct) | T24 Avg, peak area as percentage of T=0 (Chi18 mRNA construct) [%] | T24 R1 peak area at 250 nm (Chi18 mRNA construct) | T0 Avg, peak area as percentage of T=0 (Chi18 mRNA construct) [%] | EC50 (FgenL model RNA [1]) [mM] | % Control N = 1 (FgenL model RNA [2]) [%] | % Control N = 2 (FgenL model RNA [2]) [%] | % Control Average (FgenL model RNA [2]) [%] | Conc. FgenL#1 (FgenL model RNA [2]) | Conc. FgenL#2 (FgenL model RNA [2]) | T24 Avg, peak area as percentage of T=0 (FgenL mRNA construct) [%] | T24 R1 peak area at 250 nm (FgenL mRNA construct) | T0 Avg, peak area as percentage of T=0 (FgenL mRNA construct) [%] | EC50 (Chi18 model RNA) [mM] | T0 R1 peak area at 250 nm (Chi18 mRNA construct) | T2 Avg, peak area as percentage of T=0 (Chi18 mRNA construct) [%] | T2 R1 peak area at 250 nm (Chi18 mRNA construct) | T0 R1 peak area at 250 nm (FgenL mRNA construct) | T2 Avg, peak area as percentage of T=0 (FgenL mRNA construct) [%] | other results
1 | N[C@@H](CS)C(=O)O [Cysteine] | 0.0 | 0 | 0.0 | 0 | 100.0 | > 30 | 4.9 | 5.9 | 5.4 | 1.7 | 2.05 | 0.0 | 0 | 100.0 | > 30 |  |  |  |  |  | T0 R1 peak area at 250 nm (Chi18 mRNA construct; listed as Cys): 39458 and 20358; T2 R1 peak area at 250 nm (Chi18 mRNA construct; listed as Cys): 25387 and 14715; T2 Avg, peak area as percentage of T=0 (Chi18 mRNA construct; listed as Cys): 60.4% and 61.4%; T0 R1 peak area at 250 nm (FgenL mRNA construct; listed as Cys): 23851 and 18041; T2 R1 peak area at 250 nm (FgenL mRNA construct; listed as Cys): 17633 and 6085; T2 Avg, peak area as percentage of T=0 (FgenL mRNA construct; listed as Cys): 58.8% and 30.1%; T10 R1 peak area at 250 nm (FgenL mRNA construct; listed as Cys): 3767 and 0; T10 Avg, peak area as percentage of T=0 (FgenL mRNA construct; listed as Cys): 8.8% and 0.0%
2 | N[C@@H](CCC(=O)O)C(=O)O [Glutamic acid] | 151.2 | 6324 |  | 0 | 100.0 | 19 | 89.9 | 76.1 | 83.0 | 31 | 26.4 | 0.0 | 0 | 100.0 | 6.7 | 19221 | 92.8 | 16514 | 14529 | 73.9 | T2 R1 peak area at 250 nm (FgenL mRNA construct): 10330; T10 Avg, peak area as percentage of T=0 (FgenL mRNA construct): 39.7%; T10 R1 peak area at 250 nm (FgenL mRNA construct): 8449
3 | NC(=O)CC[C@H](N)C(=O)O [Glutamine] | 0.0 | 0 | 0.0 | 0 | 100.0 | > 30 | 29.0 | 10.3 | 19.6 | 10 | 3.57 | 0.0 | 0 | 100.0 | 8.8 | 25301 | 51.1 | 10030 | 15510 | 25.9 | T2 R1 peak area at 250 nm (FgenL mRNA construct): 5779; T10 Avg, peak area as percentage of T=0 (FgenL mRNA construct): 0.0%; T10 R1 peak area at 250 nm (FgenL mRNA construct): 0
4 | N[C@@H](CCC(=O)N[C@@H](CS)C(=O)NCC(=O)O)C(=O)O [Glutathione] | 0.0 | 0 | 0.0 | 0 | 100.0 | > 30 | 42.9 | 35.7 | 39.3 | 14.8 | 12.4 | 0.0 | 0 | 100.0 | > 30 | 13157 | 48.7 | 7747 | 16850 | 37.7 | T2 R1 peak area at 250 nm (FgenL mRNA construct): 4627; T10 Avg, peak area as percentage of T=0 (FgenL mRNA construct): 2.3%; T10 R1 peak area at 250 nm (FgenL mRNA construct): 0
